Reference: patent publication US20220372067A1, “3.ALPHA.-HYDROXY-17.BETA.-AMIDE NEUROACTIVE STEROIDS AND COMPOSITIONS THEREOF” (SAGE THERAPEUTICS, INC., priority 2018, published 2022)

Biological target: GABAA receptor (TBPS binding site), rat brain cortical membranes
Test: [35S]-TBPS binding assay, rat brain cortical membranes in the presence of 5 mM GABA
Conditions: inhibition of 3 nM [35S]-TBPS binding
Description: [^35S]-t-Butylbicyclophosphorothionate (TBPS) binding assays using rat brain cortical membranes in the presence of 5 mM GABA has been described (Gee et al, J. Pharmacol. Exp. Ther. 1987, 241, 346-353; Hawkinson et al, Mol. Pharmacol. 1994, 46, 977-985; Lewin, A. H et al., Mol. Pharmacol. 1989, 35, 189-194).
Briefly, cortices are rapidly removed following decapitation of carbon dioxide-anesthetized Sprague-Dawley rats (200-250 g). The cortices are homogenized in 10 volumes of ice-cold 0.32 M sucrose using a glass/teflon homogenizer and centrifuged at 1500×g for 10 min at 4° C. The resultant supernatants are centrifuged at 10,000×g for 20 min at 4° C. to obtain the P2 pellets. The P2 pellets are resuspended in 200 mM NaCl/50 mM Na—K phosphate pH 7.4 buffer and centrifuged at 10,000×g for 10 min at 4° C. This washing procedure is repeated twice and the pellets are resuspended in 10 volumes of buffer. Aliquots ([…]) of the membrane suspensions are incubated with 3 nM [^35S]-TBPS and […] aliquots of test drug dissolved in dimethyl sulfoxide (DMSO) (final 0.5%) in the presence of 5 mM GABA. The incubation is brought to a final volume of 1.0 mL with buffer. Nonspecific binding is determined in the presence of […] and ranged from 15 to 25%. Following a 90 min incubation at room temp, the assays are terminated by filtration through glass fiber filters (Schleicher and Schuell No. 32) using a cell harvester (Brandel) and rinsed three times with ice-cold buffer. Filter bound radioactivity is measured by liquid scintillation spectrometry. Non-linear curve fitting of the overall data for each drug averaged for each concentration is done using Prism (GraphPad). […] The concentration of test compound producing 50% inhibition (IC50) of specific binding and the maximal extent of inhibition (Imax) are determined for the individual experiments with the same model used for the overall data and then the means±SEM.s of the individual experiments are calculated.
Various compounds are or can be screened to determine their potential as modulators of [^35S]-TBPS binding in vitro. These assays are or can be performed in accordance with the above

Compared with CCOC[C@@]1(O)CC[C@H]2[C@H](CC[C@@H]3[C@@H]2CC[C@]2(C)[C@@H](C(=O)Nc4ncccc4C)CC[C@@H]32)C1 [Example 2, (3R,5R,8R,9R,10S,13S,14S,17S)-3-(ethoxymethyl)-3-hydroxy-13-methyl-N-(3-methylpyridin-2-yl)hexadecahydro-1H-cyclopenta[a]phenanthrene-17-carboxamide], CCOC[C@@]1(O)CC[C@H]2[C@H](CC[C@@H]3[C@@H]2CC[C@]2(C)[C@@H](C(=O)Nc4ncccc4C(F)(F)F)CC[C@@H]32)C1 [Example 3, (3R,5R,8R,9R,10S,13S,14S,17S)-3-(ethoxymethyl)-3-hydroxy-13-methyl-N-(3-(trifluoromethyl)pyridin-2-yl)hexadecahydro-1H-cyclopenta[a]phenanthrene-17-carboxamide] is lower in IC50: greater than 1000 nM for the first, 100 to 1000 nM for the second. The second is the more potent here.

First: CCOC[C@@]1(O)CC[C@H]2[C@H](CC[C@@H]3[C@@H]2CC[C@]2(C)[C@@H](C(=O)Nc4cncc(C)n4)CC[C@@H]32)C1 [Example 24]
Second: CCOC[C@@]1(O)CC[C@H]2[C@H](CC[C@@H]3[C@@H]2CC[C@]2(C)[C@@H](C(=O)Nc4cccnc4)CC[C@@H]32)C1 [Example 21]
The IC50 of the first is lower: less than 100 nM for the first, 100 to 1000 nM for the second. The first is the more potent here.

CCOC[C@@]1(O)CC[C@H]2[C@H](CC[C@@H]3[C@@H]2CC[C@]2(C)[C@@H](C(=O)Nc4cccc(N5CCCC5=O)n4)CC[C@@H]32)C1 [Example 64] and CCOC[C@@]1(O)CC[C@H]2[C@H](CC[C@@H]3[C@@H]2CC[C@]2(C)[C@@H](C(=O)Nc4ccc(N5CCCC5=O)nc4C)CC[C@@H]32)C1 [Example 65] cannot be ordered by IC50: less than 100 nM for the first, less than 100 nM for the second.

First: COC[C@@]1(O)CC[C@H]2[C@H](CC[C@@H]3[C@@H]2CC[C@]2(C)[C@@H](C(=O)Nc4nc(C)ccc4Cl)CC[C@@H]32)C1 [Example 44]
Second: COC[C@@]1(O)CC[C@H]2[C@H](CC[C@@H]3[C@@H]2CC[C@]2(C)[C@@H](C(=O)Nc4ccc(-n5ccc(C)n5)nc4C)CC[C@@H]32)C1 [Example 52]
The IC50 of the first is higher: 100 to 1000 nM for the first, less than 100 nM for the second.

CCOC[C@@]1(O)CC[C@@]2(CC)[C@H](CC[C@H]3[C@@H]4CC[C@H](C(=O)Nc5ccc(C#N)cn5)[C@@]4(C)CC[C@@H]32)C1 [Example 33] and CCOC[C@@]1(O)CC[C@@]2(C)[C@H](CC[C@@H]3[C@@H]2CC[C@]2(C)[C@@H](C(=O)Nc4ccc(C#N)cn4)CC[C@@H]32)C1 [Example 31] cannot be ordered by IC50: less than 100 nM for the first, less than 100 nM for the second.

CCOC[C@@]1(O)CC[C@@]2(CC)[C@H](CC[C@H]3[C@@H]4CC[C@H](C(=O)Nc5cnc(C#N)cn5)[C@@]4(C)CC[C@@H]32)C1 [Example 11, (3R,5R,8S,9S,10S,13S,14S,17S)-N-(5-cyanopyrazin-2-yl)-3-(ethoxymethyl)-10-ethyl-3-hydroxy-13-methylhexadecahydro-1H-cyclopenta[a]phenanthrene-17-carboxamide] and CCOC[C@@]1(O)CC[C@@]2(COC(C)C)[C@H](CC[C@H]3[C@@H]4CC[C@H](C(=O)Nc5ccc(C#N)cn5)[C@@]4(C)CC[C@@H]32)C1 [Example 9, (3R,5R,8S,9S,10R,13S,14S,17S)-N-(5-cyanopyridin-2-yl)-3-(ethoxymethyl)-3-hydroxy-10-(isopropoxymethyl)-13-methylhexadecahydro-1H-cyclopenta[a]phenanthrene-17-carboxamide] cannot be ordered by IC50: less than 100 nM for the first, less than 100 nM for the second.

COC[C@@]1(O)CC[C@@]2(C)[C@@H](CC[C@@H]3[C@@H]2CC[C@]2(C)[C@@H](C(=O)Nc4cccnc4C)CC[C@@H]32)C1 [Example 32] and CCOC[C@@]1(O)CC[C@H]2[C@H](CC[C@@H]3[C@@H]2CC[C@]2(C)[C@@H](C(=O)Nc4cc(C5CC5)nn4C)CC[C@@H]32)C1 [Example 56] cannot be ordered by IC50: less than 100 nM for the first, less than 100 nM for the second.
